Measured values taken from patent US20250051703A1, “EGG OPENER, EX OVO TUMOR XENOGRAFT METHOD, THERAPEUTIC COMPOUND ASSAY, THERAPEUTIC COMPOUND TESTING METHOD VIA EX OVO QUAIL EGG XENOGRAFT ASSAY” (CHILDREN'S CANCER THERAPY DEVELOPMENT INSTITUTE, priority 2021, published 2025).
Entries after “also recorded” stand apart in the source; their conditions may differ.

Assays:
[1] = tested on: HB243 hepatoblastoma cell line; test: In vitro % viability dose-response, HB243; format: cell-based, human; details: n=4 replicates per point
[2] = tested on: HB282 hepatoblastoma cell line; test: In vitro % viability dose-response, HB282; format: cell-based; details: Homo sapiens, n=4 replicates per point
[3] = tested on: HepG2 hepatoblastoma cell line; test: In vitro % viability dose-response, HepG2; format: cell-based; details: Homo sapiens, n=4 replicates per point
HB243 CAM xenograft = test: Quail dose response assay (ex ovo CAM xenograft, osmotic bead drug depot), HB243; format: in vivo; details: Homo sapiens, osmotic bead delivery, 72 hours, read-out: 50% tumor growth inhibition (ex ovo IC50), HB243
Protocol: (§1) The tumor modules for dose response assay are generated as described above but with 5×10^5 cells per 50 μl. Drug was dissolved in DMSO for all levels to a final tumor module concentration of vehicle control, 0.3 μM, 3 μM, or 30 μM with n=6. P-10 beads (catalog #1504144, Bio-Rad, Hercules, CA, USA) are soaked in PBS at the concentration of the modules for four hours at room temperature. Approximately 50 μl of bead solution is added to a 9.5×1.5 mm plastic ring placed on top of the tumor module forming a drug depot. The drug depot provided a constant source of drug keeping the tumor module at a constant concentration despite drug leaving the module for the quail, as shown in FIG. 17. The IR820 has an exponential range between 0.001 and 1 μM as shown in the dose-response curve of FIG. 17A in lumens v. IR820 concentration.
(§2) The quail with tumor module models and drug depots are incubated for 72 hours. Afterwards, 150 μl of 15 mg/ml luciferin (cat #122799, Perkin Elmer) in PBS is added to the modules incubated for 10 minutes and then imaged on an IVIS Lumina (PerkinElmer) for between 15 seconds (for cell lines HepG2) or 1 minute (for cell lines HB243 and HB282).
(§3) The tumor modules for dose response assay were generated as described above but with 5×10^5 cells per 50 μl. […]

HB282 CAM xenograft = test: Quail dose response assay (ex ovo CAM xenograft, osmotic bead drug depot), HB282; format: in vivo; details: Homo sapiens, osmotic bead delivery, 72 hours, read-out: 50% tumor growth inhibition (ex ovo IC50), HB282
Protocol: as §1, §2, §3

[4] = tested on: HepG2 xenograft CAM assay; test: Quail dose response assay (ex ovo CAM xenograft, osmotic bead drug depot), HepG2; format: in vivo, human; details: for dose-response in HepG2 xenograft CAM assay: FIGS. 18H and 18I, radiance
Protocol: as §1, §2
Validation assays are conducted to correlate murine and human cell lines across a range of biologicals and small molecule drugs for pediatric and adult cell lines. B16F10 is a murine melanoma cell line constitutively expressing firefly luciferase (available as cat #BW124734 from Perkin-Elmer, Akron, Ohio USA), which is used to form a CAM xenograft as per the invention herein with the difference of being an adult-type cancer cell line, and radiance reflecting cell viability as impaired by drug. In FIGS. 18A-18J, to analyze drug efficacy on tumor cells, luciferin is added to the scaffold and then imaged by a CCD camera to determine the total xenograft cell viability, with the results indicated as radiance (e.g., steradians/cm^2/s) on the Y axis. See also FIG. 1 at Step 14. […]

HB243 murine xenografts = test: Murine in vivo xenograft study, HB243; set-up: species or system mouse
Protocol: All studies in mice were performed after receiving approval from the institutional animal care and use committee (IACUC) at Children's Cancer Therapy Development Institute and in accordance with ARRIVE Guidelines. HepG2 and HB243 were suspended in Matrigel and injected into n=10 eight week-old female nod scid gamma mice per cell line xenograft (Charles River, Hollister, CA, NOD.CB17-Prkde^scid/NCrCrl) with 2×10^6 cells per 100 μl injection. […] Volasertib (cat #S2235, Selleck Chem) was suspended in 3.75% DMSO and corn oil (cat #C8267, Sigma-Aldrich, St Louis, MO) at a concentration of 1.5 mg/ml with 100 μl injected intraperitoneally with mice chosen for the drug and control group randomly selected to minimize selection bias. The mice were imaged by intraperitoneal injection of luciferin-d according to manufacturer's instructions. The tumors were measured using calipers every 3 days and the equation for volume was […]. At the study end or if the tumors reached 1.5 cc the tumors were removed and measured.
For the murine in vivo xenograft study survival analysis, the tumor endpoint volumes for time-to-event (TTE) analysis were set at 0.75 cc and were collected to 1.5 cc. TTE was defined in days by selecting the day in which the tumor volume equaled or surpassed 0.75 cc. […] The Kaplan-Meier survival plot represents the percentage of animals surviving at different time points during the study. These percentages were generated from the TTE data using GraphPad Prism 9.0 software (Graphpad Software, San Diego, CA, https://www.graphpad.com/scientific-software/prism/). Survival curve comparisons were analyzed using the Mantel-Cox and Gehan-Breslow-Wilcox tests (95% CI) through Graph Pad Prism 9.0 software. For the quail xenograft assay, significance was determined by an unpaired two-tailed t-test with Welch's correction and a p-value less than 0.05 was considered statistically significant. Error bars represent±standard error of the mean (SEM).

HepG2 murine xenografts = test: Murine in vivo xenograft study, HepG2; set-up: species or system mouse; details: FIG. 16F
Protocol: All studies in mice were performed after receiving approval from the institutional animal care and use committee (IACUC) at Children's Cancer Therapy Development Institute and in accordance with ARRIVE Guidelines. HepG2 and HB243 were suspended in Matrigel and injected into n=10 eight week-old female nod scid gamma mice per cell line xenograft (Charles River, Hollister, CA, NOD.CB17-Prkde^scid/NCrCrl) with 2×10^6 cells per 100 μl injection. […] The tumors were measured using calipers every 3 days and the equation for volume was V=L×W×H×0.5(π/6). At the study end or if the tumors reached 1.5 cc the tumors were removed and measured.
For the murine in vivo xenograft study survival analysis, the tumor endpoint volumes for time-to-event (TTE) analysis were set at 0.75 cc and were collected to 1.5 cc. […] Survival curve comparisons were analyzed using the Mantel-Cox and Gehan-Breslow-Wilcox tests (95% CI) through Graph Pad Prism 9.0 software. For the quail xenograft assay, significance was determined by an unpaired two-tailed t-test with Welch's correction and a p-value less than 0.05 was considered statistically significant. […]

[5] = tested on: BT474 human breast cancer cell line; test: BT474 xenograft CAM assay, radiance; format: in vivo; details: FIGS. 18C and 18D
[6] = tested on: U48484 mouse rhabdomyosarcoma cells; test: Quail tumor assay: U48484 tumor module xenograft on quail CAM, bioluminescence; format: in vivo
Protocol: U48484 mouse rhabdomyosarcoma cells were cultured, trypsinized and added to two different vials of hydrogel making a concentration of 10^6 cells per 50 μl. BEZ235 (cat #S1009, Selleck Chemicals, Houston, TX) in a solution of 0.1% DMF (cat #TS-20673, Thermo Fisher Scientific) in PBS was added to 10^6 U48484 mouse rhabdomyosarcoma cells mixed with 50 μl hydrogel for a final concentration of 500 nM BEZ235. For untreated eggs, 0.1% DMF in PBS was used as a control. 50 μl of cells/hydrogel/drug mixture were added to each scaffold and incubated for approximately 30-45 minutes at 37° C. and 100% humidity. As detailed above, a superficial injury was created on the chorioallantoic membrane and tumor module containing either drug or control was placed on top. Quail bearing tumor module models were incubated for 72 hours. Add the end of the incubation, 100 μl of PBS containing 1.5 mg of luciferin-d (cat #122799, PerkinElmer) was added to the 3D scaffold, incubated for 10 minutes in the dark, and bioluminescence was measured using a Fluorchem instrument (ProteinSimple, San Jose, CA). The quail were imaged with an 8 minute exposure for total light emission.
u48484 is a murine rhabdomyosarcoma cell line constitutively expressing firefly luciferase (available from the originating laboratory as described in Aslam et al, PDGFRβ reverses EphB4 signaling in alveolar rhabdomyosarcoma, Proc Natl Acad Sci USA. 2014 Apr. 29; 111 (17): 6383-8. doi: 10.1073/pnas. 1403608111; PMID 24733895), which is used to form a CAM xenograft as per the invention herein except being a non-human tumor cell line.
U48484 mouse rhabdomyosarcoma cells were cultured, trypsinized and added to two different vials of hydrogel making a concentration of 10^6 cells per 50 μl. […] Add the end of the incubation, 100 μl of PBS containing 1.5 mg of luciferin-d (cat #122799, Perkin Elmer) was added to the 3D scaffold, incubated for 10 minutes in the dark, and bioluminescence was measured using a Fluorchem instrument (Protein Simple, San Jose, CA). […]

[7] = tested on: Hep3B human hepatocellular carcinoma; details: literature (Li, et al.); cited from earlier work
[8] = tested on: e10 quail embryo liver and kidney; details: Japanese quail, in vivo
Protocol: Cediranib (Cat #S1017, Selleck Chemicals LLC, Houston, TX) and erlotinib (Cat #S7786) were purchased from Selleck Chemicals and reconstituted in dimethyl sulfoxide (DMSO) following the manufacturers recommendations and diluted to 10 mM stock concentration.
Fertilized Japanese quail eggs were incubated and plated as described previously. Quail were allowed to grow ex ovo in six-well plates until the quail had passed the patterning phase (e8 based on plating date). Each experimental arm was assigned n=4 viable quail and treated with one of four experimental conditions: vehicle, cediranib, ertoltinib, and cediranib+erlotinib. […] Stock concentrations were diluted in phosphate-buffered saline (PBS) to the respective target concentrations and to a final volume of 25 μL per agent. DMSO for vehicle was set at the DMSO volume used in the cediranib+erlotinib combination (8.4 μL DMSO).
Vehicle and diluted agents were subsequently applied dropwise to the quail chorioallantoic membrane. Quail were photographed at 0 hours, 24 hours, and 48 hours.

[9] = cited from earlier work
[10] = tested on: B16F10 murine melanoma cell line; test: B16F10 xenograft CAM assay, radiance; format: in vivo; details: FIG. 18A
Protocol: Validation assays are conducted to correlate murine and human cell lines across a range of biologicals and small molecule drugs for pediatric and adult cell lines. B16F10 is a murine melanoma cell line constitutively expressing firefly luciferase (available as cat #BW124734 from Perkin-Elmer, Akron, Ohio USA), which is used to form a CAM xenograft as per the invention herein with the difference of being an adult-type cancer cell line, and radiance reflecting cell viability as impaired by drug. In FIGS. 18A-18J, to analyze drug efficacy on tumor cells, luciferin is added to the scaffold and then imaged by a CCD camera to determine the total xenograft cell viability, with the results indicated as radiance (e.g., steradians/cm^2/s) on the Y axis. See also FIG. 1 at Step 14.

[11] = tested on: murine glioma cell line GL261; details: literature (Yang, et al.); cited from earlier work
[12] = tested on: murine glioma cell line GL261; details: literature (Yang, et al.); cited from earlier work; remark: listed apart in the source

`CC[C@@H]1C(=O)N(C)c2cnc(Nc3ccc(C(=O)N[C@H]4CC[C@H](N5CCN(CC6CC6)CC5)CC4)cc3OC)nc2N1C(C)C` [volasertib] gave an IC50 ([1]; Homo sapiens) of 191 nM, an IC50 [1] of 282 nM and an IC50 [2] of 916 nM. For the same compound, the IC50 [3] was 508 nM, the IC50 (HB243 CAM xenograft) was 1460 nM and the IC50 (HB282 CAM xenograft) was 1040 nM. For the same compound, the “sensitivity of HepG2 ex ovo” value ([4]; FIG. 16D, CAM xenograft, osmotic bead delivery, 72 hours) was “insensitive at any concentration”, the “dose-response in HepG2 xenograft CAM assay” value [4] was “dose-response relationship can be observed” and the “tumor growth of HB243 mouse xenograft relative to the control group” value (HB243 murine xenografts; FIG. 16E) was “statistically significant reduction in growth”. For the same compound, the “treatment mice surviving to the endpoint longer than control (average)” value (HB243 murine xenografts; HB243 mouse xenograft, vs vehicle) was 4.5 days, the “survival of HB243 murine xenografts, treatment vs control, p (Mantel-Cox test)” value (HB243 murine xenografts; n=4, event = tumor volume equal or greater than 0.75 cc, intraperitoneal) was 0.031 and the “survival / response of HepG2 mouse xenograft” value (HepG2 murine xenografts) was “no increase in survival; also recorded: continued to be resistant”.
For `CS(=O)(=O)CCNCc1ccc(-c2ccc3ncnc(Nc4ccc(OCc5cccc(F)c5)c(Cl)c4)c3c2)o1` [lapatinib], the “dose-response in BT474 xenograft CAM assay” value [5] was “dose-response relationship”.
With `Cn1c(=O)n(-c2ccc(C(C)(C)C#N)cc2)c2c3cc(-c4cnc5ccccc5c4)ccc3ncc21` [BEZ235] the “significance p, treated (n=6) vs vehicle control (n=4), tumor bioluminescence” value ([6]; FIG. 14, unpaired two-tailed t-test with Welch's correction) was 0.0048, the “inhibition of tumor growth in u48484 xenograft CAM assay” value ([6]; FIG. 18J) was “drug-related inhibition of tumor growth can be observed” and the inhibition at 0.5 µM ([6]; Mus musculus, Rhabdomyosarcoma cell, 500 nM in the hydrogel volume, 72 hours on CAM, read-out: reduction in U48484 tumor module bioluminescence (tumor cell viability)) was 20%.
For `Cc1sc2c(c1C)C(c1ccc(Cl)cc1)=N[C@@H](CC(=O)OC(C)(C)C)c1nnc(C)n1-2` [JQ1], the “efficacy against Hep3B in vivo” value [7] is given as “showed efficacy”.
In the case of `COc1cc2c(Oc3ccc4[nH]c(C)cc4c3F)ncnc2cc1OCCCN1CCCC1` [cediranib], the “remaining viable quail 48 hours after dosing” value [8] is listed as 3 and the “maximum clinically-achievable serum concentrations (Cmax) in human patients” value [9] is listed as 42 ng/mL.
For `Cc1ncsc1-c1ccc(CNC(=O)[C@@H]2C[C@@H](O)CN2C(=O)[C@@H](NC(=O)COCCOCCOCCNC(=O)C[C@@H]2N=C(c3ccc(Cl)cc3)c3c(sc(C)c3C)-n3c(C)nnc32)C(C)(C)C)cc1` [MZ1], the “dose-response in HepG2 xenograft CAM assay” value [4] was “dose-response relationship can be observed” and the “dose-response in B16F10 xenograft CAM assay” value [10] was “dose-response relationship exists”.
For `C#Cc1cccc(Nc2ncnc3cc(OCCOC)c(OCCOC)cc23)c1` [erlotinib], the “remaining viable quail 48 hours after dosing” value [8] is given as 3 and the “maximum clinically-achievable serum concentrations (Cmax) in human patients” value [9] is given as 1300 ng/mL.
For `Cc1sc2c(c1C)C(c1ccc(Cl)cc1)=N[C@@H](CC(=O)Nc1ccc(OCCOCCOCCOCCNc3cccc4c3C(=O)N(C3CCC(=O)NC3=O)C4=O)cc1)c1nnc(C)n1-2` (stereo partly shown) [ARV-825], the “efficacy against GL261 in vitro” value [11] is listed as “showing efficacy” and the “efficacy against GL261 in vivo” value [12] is listed as “showing efficacy”.
